Measurements reported in ChEMBL document CHEMBL3507680, “University of Dundee, Gates Library screen for HepG2 cell viability”.

test: Human HepG2 cell viability assay in 384 well format; type: toxicity, cell-based; design: dose 125 nL, time 70.5 hour; cytotoxicity at 70.5 h: concentration not given beside the values; conditions: HepG2 cells, read-out: Inhibition

Row | Structure (SMILES) | cytotoxicity at 70.5 h [%]
1 | O=C(c1cocn1)N1CCC2(CC1)COC(COCc1ccccn1)C2 (centres undefined) | 0.202
2 | Cc1cccc(S(=O)(=O)N2CC[C@H]3CO[C@H](CN(C)C)[C@H]3C2)c1 | -6.86
3 | CCCc1n[nH]c(C2CN(C(=O)c3ccc[nH]3)CCO2)n1 (centres undefined) | -3.89
4 | CC(C)[C@@H](C)NC(=O)N1CCn2nc(C(=O)NCCN(C)C)cc2C1 | -0.748
5 | CCN(CC1CCOC1)C(=O)NCc1nnc2n1CCC2 (centres undefined) | -5.15
6 | CCCN1CC(C(=O)Nc2ccccn2)CC1=O (centres undefined) | -5.78
7 | Cc1ccc(CC(=O)N2CCOCC2c2ncon2)cc1 (centres undefined) | -5.42
8 | O=C(O)c1cc(S(=O)(=O)N2CCOc3ccccc32)ccc1Br | -2.35
9 | c1cnc(N2CCCC3(COCCN(c4nncs4)C3)C2)cn1 (centres undefined) | -6.49
10 | Cc1cc2nc(C(C)C)cc(N3CCSCC3)n2n1 | 16.2
11 | COc1ccc(CN2CCOC3(CCCN(c4nnc(C)o4)C3)C2)cc1 (centres undefined) | -2.27
12 | Cc1ccc2[nH]c(C(=O)NCCCn3ccnn3)c(C)c2c1 | 22.6
13 | CC(=O)N1CCN(C(=O)c2ccc(-c3cccc(C)c3)[nH]c2=O)CC1 | -2.2
14 | CC(Cn1ccnc1)NC(=O)N(C)Cc1ccc2c(c1)OCCO2 (centres undefined) | 26.7
15 | CC(=O)Nc1cccc(CN2CCCC2C(=O)Nc2nccs2)c1 (centres undefined) | 17.5
16 | CC(C)Cn1cc(NC(=O)N2CCCC2)cn1 | 0.273
17 | Cc1nnc(CN(Cc2ccc(Cl)c(Cl)c2)C2CC2)o1 | -3.07
18 | CNS(=O)(=O)CC(=O)N1CCC(c2cc3ccccc3[nH]2)CC1 | 1.33
19 | O=S(=O)(CCN1CCN(c2ccccc2O)CC1)c1ccc(Br)cc1 | -8.18
20 | c1ccc2c(NC3CCc4ncnn4C3)ncnc2c1 (centres undefined) | -4.29
21 | CCOCCN1CCC(c2cncc(C)n2)CC1 | -1.63
22 | CN1C[C@@H](C(=O)NC2CC2)[C@@]2(COc3ccc(F)cc3C2=O)C1 | 12.2
23 | O=S(=O)(c1cccs1)N1CCCn2nnc(CN3CCCCC3)c2C1 | 0.152

Row | Structure (SMILES) | cytotoxicity at 70.5 h [%]
24 | CC(CCc1ccc(F)c(F)c1)NS(=O)(=O)Cc1ccon1 (centres undefined) | 20.5
25 | Cc1nc(C)n(CC(C)C(=O)N2CCC(NS(C)(=O)=O)CC2)n1 (centres undefined) | 34.2
26 | CN1CCCC[C@@H]2[C@H]1[C@@H](c1ccccc1)CCN2C(=O)c1ccccn1 | -9.11
27 | CS(=O)(=O)NCCC1CCCCN1C(=O)NCc1ccccn1 (centres undefined) | -18.6
28 | Cc1ccsc1CN(c1nc(CCN)nc2ccccc12)C1CC1 | 10.4
29 | O=C(NCc1ccccn1)[C@H]1COC[C@H]2CN(c3ncccn3)C[C@H]21 | -4.8
30 | CC(C)(C)c1n[nH]c(C2CN(Cc3nnc(C4CCC4)o3)CCO2)n1 (centres undefined) | -2.38
31 | COc1cnc(CSc2nnc(C)s2)cc1OCC(=O)NC(C)(C)C | -7.68
32 | Cc1csc(N2CCC(CCN3CCCC3=O)CC2)n1 | -14.3
33 | CC(C)(C)OC(=O)CNC(=O)CCc1nnc(-c2ccsc2)o1 | 0.905
34 | Cc1nc(-c2ccccc2)sc1C(=O)N(C1CC1)C1CC(=O)NC1=O (centres undefined) | -8.02
35 | C[C@]1(O)CCN(Cc2c[nH]cn2)C[C@@H]1Oc1cccc(F)c1 | -7.83
36 | CSCc1nc(CCNC(=O)C(N)c2c(C)n[nH]c2C)cs1 (centres undefined) | -3.99
37 | CCn1nccc1CNC(=O)Cn1cc2c(n1)c(C)nn2C(C)C | -9.07
38 | O=C(c1ccco1)N1C[C@@H]2CCN(c3cccnc3)C[C@@H]2C1 | -11.6
39 | CCN1CCC2(CC1)CC(Nc1ncccn1)CO2 (centres undefined) | -1.36
40 | COc1ccc(OC)c2c(C)cc(N(C)Cc3cc(C)on3)nc12 | 23.1
41 | CC(=O)c1ccc(NCc2cc3n(n2)CCCN(S(C)(=O)=O)C3)nc1 | -1.18
42 | COc1ccc(CN(Cc2cncn2C)CC2CCCO2)cc1 (centres undefined) | -7.47
43 | CC(C)c1nccn1C1CCCN(C(=O)c2ccc3c(c2)COC3)C1 (centres undefined) | -8.53
44 | COc1cccc(C(CO)NC(=O)Cc2ccc(F)c(Br)c2)c1 (centres undefined) | -3.64
45 | Cc1nn(-c2ncccn2)c2c1C(c1cnn(C)c1C)SCC(=O)N2 (centres undefined) | -22.5
46 | CC(C)(C)Cc1noc2ncc(C(=O)N3CCSCC3)cc12 | -7.45

Row | Structure (SMILES) | cytotoxicity at 70.5 h [%]
47 | COc1ccc(C(=O)NCc2ccc(C(=O)O)o2)cc1 | 27.3
48 | CC(C)c1nc(C2CCCN2CCc2ccccn2)no1 (centres undefined) | -15.3
49 | COc1ccc(F)cc1CN(CC(N)=O)C(C)C | -3.68
50 | Cn1ccnc(Nc2ccc3c(c2)CCN3C(=O)c2ccoc2)c1=O | -10
51 | CN1CCN(CCCNC(=O)CCc2nc3cc(Br)cnc3[nH]2)CC1 | -31
52 | Cn1nc2c(cc1=O)CN(Cc1nnc(-c3ccc(F)cc3)o1)CC2 | -22.9
53 | Cc1cc(CNC(=O)CN2CCN(C(=O)OC(C)(C)C)CC2)ccc1F | 13.3
54 | COc1ccc(CCN2CCOC(Cn3nc(C)nc3C)C2)cc1 (centres undefined) | -5.86
55 | Cc1cc(NC(=O)NCc2ccc(C)s2)no1 | -8.73
56 | COCCn1ccc2cc(C(=O)NC3CCOC(C)(C)C3)ccc21 (centres undefined) | -2.78
57 | CCOCC1COCCC12CCN(C(=O)CCOC)CC2 (centres undefined) | -17.1
58 | O=C(NCCn1nc(-n2cncn2)ccc1=O)c1ccc(F)cc1F | -5.23
59 | CC(C)NC(=O)C1CN(C(=O)Nc2cccc(F)c2)CC12CCOCC2 (centres undefined) | -6.98
60 | CC(C)C(C(=O)N1CCN(Cc2ccncc2)CC1)n1cncn1 (centres undefined) | -9.68
61 | Cc1nccn1-c1cc(CNC(=O)C(C)(C)C)ccn1 | -4.88
62 | CN1CCc2c(C#N)c(NCC3CCCO3)n3cnnc3c2C1 (centres undefined) | -5.45
63 | CC1(C)CN(C(=O)CCc2nc(-c3ccncc3)no2)CCO1 | -12
64 | CN(Cc1ccco1)[C@@H]1CN(C(=O)c2cnccn2)C[C@@H]2CCCO[C@@H]21 | -2.85
65 | Fc1cccc(OC2CCN(Cc3ncc[nH]3)CC2)c1 | 18
66 | COC(=O)C(NC(=O)c1cc(C)ccc1C)c1cccnc1 (centres undefined) | -0.114
67 | Cc1oc(C(=O)O)cc1S(=O)(=O)Nc1cccc(Cl)c1F | -7.29
68 | COc1ccc(CCN)cc1-c1ccc(C(N)=O)cc1 | -6.83
69 | CCc1[nH]c2c(CNc3nccc(N)n3)cc(F)cc2c1C | 16.1

Row | Structure (SMILES) | cytotoxicity at 70.5 h [%]
70 | Cc1noc(C2(C)CCCN(C(=O)c3cccnc3)C2)n1 (centres undefined) | 11.1
71 | CSCCCN1C[C@H](NC(=O)c2ccc(CO)cc2)[C@@H](C2CC2)C1 | -9.41
72 | CCN1CCc2c(cccc2NC(=O)N(C)C2CCSC2)C1 (centres undefined) | -10.8
73 | CC(C)(O)CN1CCN(C(=O)c2ccc3c(c2)COC3)CC1 | -5.78
74 | O=C(CCc1nnc(-c2ccsc2)o1)NCC1CCN(C2CC2)C1 (centres undefined) | -4.06
75 | Cc1cnn(CCNCc2csc(-c3cccs3)n2)c1 | -4.79
76 | Cn1cc(-c2nc(C(=O)N3CCCC3c3cnn(C)c3)cs2)cn1 (centres undefined) | -5.1
77 | Cc1[nH]n(-c2ccccc2)c2nnc(N)c1-2 | -2.04
78 | CCS(=O)(=O)N1CCc2ccc(NC(=O)NCCc3ccccc3)cc21 | -6.1
79 | CCNc1cc2c(nn1)CCN(C(=O)c1cc3ccccc3o1)C2 | -6.18
80 | Cc1cccc(C(C(=O)NCCCc2ccncc2)N(C)C)c1 (centres undefined) | -4.41
81 | O=C(N1CCOCC1)[C@@]12CCO[C@@H]1CCN(CC1CCC1)C2 | -20.9
82 | CN(C)C(C(=O)N1CC(Oc2ccccc2F)C1)c1ccc(F)cc1 (centres undefined) | -0.723
83 | Cc1ccc(C(=O)NCc2cccnc2N(C)C)o1 | -12.1
84 | O=C(CCN1CCOC(CNc2cccnn2)C1)NC1CCCCC1 (centres undefined) | 11.1
85 | COc1ccc(C2CCCN2C(=O)NCCCn2ccnc2)cc1 (centres undefined) | 16.1
86 | Cc1cc(C(=O)NCCN2CCCCC2)nn1C(C)(C)C | -18
87 | CN(C)C(=O)COCC1C[C@@H]2OCCN(Cc3ccco3)[C@H]2C1 (some centres undefined) | -15.5
88 | CCS(=O)(=O)N1CCOC2(CCCN(c3ccc(C)nn3)C2)C1 (centres undefined) | -11.8
89 | O=C(NC1CC1)c1cc(C2CCCN(Cc3ccccn3)C2)no1 (centres undefined) | -13.3
90 | CC(C)c1cc(NC2CCN(C(=O)N3CCCC3)CC2)ncn1 | 12.6
91 | CN1C[C@@H](C(=O)N(C)C)[C@@]2(CCc3ccccc3C(=O)N2)C1 | 0.772
92 | Oc1cc(-c2nccs2)nc(C2CCN(Cc3cccs3)CC2)n1 | -8.93

Row | Structure (SMILES) | cytotoxicity at 70.5 h [%]
93 | COc1ccc2c(c1)c(C(=O)Nc1nnn[nH]1)cn2C | -13.5
94 | COc1ccc(OC)c(-n2cnnc2COC(C)C)c1 | -0.141
95 | O=C(Nc1ccc(CCN2CCC(O)CC2)cc1)Nc1cccnc1 | -1.85
96 | COCCN1CCOCC12CCN(C(=O)c1ccoc1)CC2 | -4.83
97 | CC(=O)c1cccc(NC(=O)N2CCCCC2CN2CCCC2=O)c1 (centres undefined) | -7.82
98 | Cc1cc(N2CCN(Cc3ccnn3C)CC2)cc(C2CCCN2)n1 (centres undefined) | 13
99 | Nc1cc2c(nn1)CCN(C(=O)Cc1ccc3c(c1)CCO3)C2 | 9.71
100 | O=C(Cn1cnc2ccsc2c1=O)c1ccc2c(c1)OCCO2 | -8.67
101 | COc1cc(CNCc2ccnc(N3CCCC3)c2)cc(OC)c1 | 1.37
102 | Cc1cc(F)c2c(c1)CCCN2Cc1cc(=O)n(C)c(=O)n1C | -8.84
103 | Cc1ncsc1CN1C[C@H](C(=O)N2CCCO2)[C@@H]2CCO[C@@H]2C1 | -0.785
104 | CCO[C@@H]1CN(Cc2scnc2C)[C@@H]2CCCO[C@@H]21 | -10.5
105 | O=S(=O)(CCCN1CCCC1Cn1cccn1)c1ccccc1 (centres undefined) | -11.1
106 | CN(C)Cc1cnc(CC2CCN(CCc3ccccc3)CC2)cn1 | 0.387
107 | CCN(CC(=O)Nc1cc(Cl)ccc1C)C(=O)c1cnccn1 | 0.456
108 | c1cnc(C2CCCN2c2cnccn2)cn1 (centres undefined) | 6.08
109 | CN1CCN(S(C)(=O)=O)Cc2cccnc21 | -2.81
110 | Cc1cc(C)n(CC2CN(c3cnc4ccccc4n3)CCO2)n1 (centres undefined) | -8.47
111 | O=C(Cc1cccs1)N1CCc2nnc(COc3cncnc3)n2CC1 | 14.8
112 | CC1CCCCN1CCN(C)C(=O)c1cc(CN2CCC(O)CC2)on1 (centres undefined) | -0.898
113 | COc1c(Br)c(C(=O)NC2CC2)nn1C | 0.124
114 | COCC(=O)N1Cc2cn(C)nc2C(COc2cccnc2)C1 (centres undefined) | 9.02
